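Test compounds were applied to cells in 96-well plates for 48 hours at 5 doses. TGI: concentration producing complete growth inhibition.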
These molecules were tested on IGROV1 ovarian (assay: DTP human tumour cell line panel, 48 h).

Structure (SMILES)	TGI [µM]
N#C/C(C(=O)Nc1ccccc1)=C(/N)N1CCOCC1	> 100
O/N=C1/COC(C(F)(F)F)(C(F)(F)F)C1	> 100
C[C@]12CC[C@H](O)CC1=CC[C@@H]1[C@@H]2CC[C@]2(C)C(=O)[C@@H](N3CCOCC3)C[C@@H]12	> 100
CC(=O)n1nc(-c2ccccc2)n(/N=C/c2ccc([N+](=O)[O-])cc2)c1=O	> 100
COc1ccc(C(=O)Sc2c(-c3ccccc3)c(=O)n(-c3ccccc3)c(=S)n2-c2ccccc2)cc1	26.4
Cc1ccc(S(=O)(=O)N/N=C/C(=C/c2ccc(Cl)cc2)CC(/C=N/NS(=O)(=O)c2ccc(C)cc2)=C\c2ccc(Cl)cc2)cc1	35.7
COc1cc(C[S+]2CCCC2)c(SC)cc1C[S+]1CCCC1	> 100
COCCOCc1nc(C#N)c(N)o1	> 100
CC1=C(C#N)C(C#N)(C#N)C(NN(C)C)C1 (stereo not drawn)	40.9
C[C@]12C=CC(=O)C=C1CC[C@H]1[C@@H]3C[C@@H](O)[C@](O)(C(=O)CO)[C@@]3(C)C[C@H](O)[C@@]12F	> 100
CCSc1n/c(=C\c2ccco2)c2nnnn12	> 100
CCOC(=O)C1=C(C)N(C)C23OC4(C(=O)OC)CC2c2ccccc2C1N3C4=O (stereo not drawn)	> 100
CC(=O)c1c2c(cc3c1CC1(Cc4ccccc4C1=O)C3)CCC2 (stereo not drawn)	> 100
CC(=O)NC1C(OCc2ccccc2)OC(CO)C(O)C1OC(C)C(=O)NC(C)C(=O)NC(CCC(=O)NCCCNc1c2ccccc2nc2cccc([N+](=O)[O-])c12)C(N)=O (stereo not drawn)	72.9
COc1cc(Nc2cnc3cc(F)c(F)cc3n2)cc(OC)c1OC	> 100
COc1ccc(C2CC(=O)CC(c3ccc(OC)cc3)C23C(=O)NC(=O)NC3=O)cc1 (stereo not drawn)	80
COC(C)(C)C1=CCC(C)CC1 (stereo not drawn)	> 100
C=C1CC(c2ccc(OCCCN3C(=O)c4ccccc4C3=O)c(OC)c2)OC1=O (stereo not drawn)	8.41
c1ccc2sc(C3(N4CCCC4)CCCCCC3)cc2c1	46.2

Each molecule was assayed on MDA-MB-231 breast (assay: DTP human tumour cell line panel, 48 h).

Structure (SMILES)	TGI [µM]
S=C(NCc1ccccc1)c1nc[nH]c1C(=S)NCc1ccccc1	22.3
Cc1cc2nc3c(C#N)c(-c4ccccc4)cc(Nc4ccc(Cl)cc4)n3c2cc1C	> 100
CC(=O)OCCn1cnc2nc(Nc3ccccc3)nc(Cl)c21	> 100
CCC1(CC)SCc2nc3ccccc3n21	90.5
O=C1OC[C@@H]2Cc3cc4c(cc3[C@H](c3ccc5c(c3)OCO5)[C@@H]12)OCO4	> 25
O/N=C1/COC(C(F)(F)F)(C(F)(F)F)C1	> 100
C[C@]12CC[C@H](O)CC1=CC[C@@H]1[C@@H]2CC[C@]2(C)C(=O)[C@@H](N3CCOCC3)C[C@@H]12	> 100
CC(=O)n1nc(-c2ccccc2)n(/N=C/c2ccc([N+](=O)[O-])cc2)c1=O	> 100
COc1ccc(C(=O)Sc2c(-c3ccccc3)c(=O)n(-c3ccccc3)c(=S)n2-c2ccccc2)cc1	> 100
Cc1ccc(S(=O)(=O)N/N=C/C(=C/c2ccc(Cl)cc2)CC(/C=N/NS(=O)(=O)c2ccc(C)cc2)=C\c2ccc(Cl)cc2)cc1	24.8
COCCOCc1nc(C#N)c(N)o1	> 100
CC1=C(C#N)C(C#N)(C#N)C(NN(C)C)C1 (stereo not drawn)	28.4
CCSc1n/c(=C\c2ccco2)c2nnnn12	> 100
CCOC(=O)C1=C(C)N(C)C23OC4(C(=O)OC)CC2c2ccccc2C1N3C4=O (stereo not drawn)	> 100
CC(=O)c1c2c(cc3c1CC1(Cc4ccccc4C1=O)C3)CCC2 (stereo not drawn)	93.4
CC(=O)NC1C(OCc2ccccc2)OC(CO)C(O)C1OC(C)C(=O)NC(C)C(=O)NC(CCC(=O)NCCCNc1c2ccccc2nc2cccc([N+](=O)[O-])c12)C(N)=O (stereo not drawn)	3.26
COc1ccc(C2CC(=O)CC(c3ccc(OC)cc3)C23C(=O)NC(=O)NC3=O)cc1 (stereo not drawn)	85
C=C1CC(c2ccc(OCCCN3C(=O)c4ccccc4C3=O)c(OC)c2)OC1=O (stereo not drawn)	30.5
c1ccc2sc(C3(N4CCCC4)CCCCCC3)cc2c1	31

What follows are molecules tested on NCI-H23 lung (assay: DTP human tumour cell line panel, 48 h).

Structure (SMILES)	TGI [µM]
S=C(NCc1ccccc1)c1nc[nH]c1C(=S)NCc1ccccc1	25.7
O=C(c1ccc(O)cc1)C1c2c3c(cc(O)c2C(c2ccc(O)cc2)C1c1cc(O)cc(O)c1)OC(c1ccc(O)cc1)C3c1cc2c(cc1O)OC(c1ccc(O)cc1)C2c1cc(O)cc(O)c1 (stereo not drawn)	> 12.5
Cc1cc2nc3c(C#N)c(-c4ccccc4)cc(Nc4ccc(Cl)cc4)n3c2cc1C	> 100
CC(=O)OCCn1cnc2nc(Nc3ccccc3)nc(Cl)c21	> 100
CCC1(CC)SCc2nc3ccccc3n21	> 100
O=C1OC[C@@H]2Cc3cc4c(cc3[C@H](c3ccc5c(c3)OCO5)[C@@H]12)OCO4	> 25
N#C/C(C(=O)Nc1ccccc1)=C(/N)N1CCOCC1	> 100
O/N=C1/COC(C(F)(F)F)(C(F)(F)F)C1	> 100
O=S1(=O)OCCOS(=O)(=O)C1F	> 100
C[C@]12CC[C@H](O)CC1=CC[C@@H]1[C@@H]2CC[C@]2(C)C(=O)[C@@H](N3CCOCC3)C[C@@H]12	> 100
CC(=O)n1nc(-c2ccccc2)n(/N=C/c2ccc([N+](=O)[O-])cc2)c1=O	> 100
COc1ccc(C(=O)Sc2c(-c3ccccc3)c(=O)n(-c3ccccc3)c(=S)n2-c2ccccc2)cc1	> 100
Cc1ccc(S(=O)(=O)N/N=C/C(=C/c2ccc(Cl)cc2)CC(/C=N/NS(=O)(=O)c2ccc(C)cc2)=C\c2ccc(Cl)cc2)cc1	26.8
COc1cc(C[S+]2CCCC2)c(SC)cc1C[S+]1CCCC1	> 100
COCCOCc1nc(C#N)c(N)o1	> 100
CC1=C(C#N)C(C#N)(C#N)C(NN(C)C)C1 (stereo not drawn)	40.8
C[C@]12C=CC(=O)C=C1CC[C@H]1[C@@H]3C[C@@H](O)[C@](O)(C(=O)CO)[C@@]3(C)C[C@H](O)[C@@]12F	> 100
CCSc1n/c(=C\c2ccco2)c2nnnn12	> 100
CCOC(=O)C1=C(C)N(C)C23OC4(C(=O)OC)CC2c2ccccc2C1N3C4=O (stereo not drawn)	> 100
CC(=O)c1c2c(cc3c1CC1(Cc4ccccc4C1=O)C3)CCC2 (stereo not drawn)	> 100
CC(=O)NC1C(OCc2ccccc2)OC(CO)C(O)C1OC(C)C(=O)NC(C)C(=O)NC(CCC(=O)NCCCNc1c2ccccc2nc2cccc([N+](=O)[O-])c12)C(N)=O (stereo not drawn)	11.8
COc1cc(Nc2cnc3cc(F)c(F)cc3n2)cc(OC)c1OC	> 100
COc1ccc(C2CC(=O)CC(c3ccc(OC)cc3)C23C(=O)NC(=O)NC3=O)cc1 (stereo not drawn)	64.7
COC(C)(C)C1=CCC(C)CC1 (stereo not drawn)	> 100
C=C1CC(c2ccc(OCCCN3C(=O)c4ccccc4C3=O)c(OC)c2)OC1=O (stereo not drawn)	18.4
c1ccc2sc(C3(N4CCCC4)CCCCCC3)cc2c1	40.6

What follows are molecules tested on OVCAR-3 ovarian (assay: DTP human tumour cell line panel, 48 h).

Structure (SMILES)	TGI [µM]
S=C(NCc1ccccc1)c1nc[nH]c1C(=S)NCc1ccccc1	18.8
O=C(c1ccc(O)cc1)C1c2c3c(cc(O)c2C(c2ccc(O)cc2)C1c1cc(O)cc(O)c1)OC(c1ccc(O)cc1)C3c1cc2c(cc1O)OC(c1ccc(O)cc1)C2c1cc(O)cc(O)c1 (stereo not drawn)	> 12.5
Cc1cc2nc3c(C#N)c(-c4ccccc4)cc(Nc4ccc(Cl)cc4)n3c2cc1C	> 100
CC(=O)OCCn1cnc2nc(Nc3ccccc3)nc(Cl)c21	> 100
CCC1(CC)SCc2nc3ccccc3n21	> 100
O=C1OC[C@@H]2Cc3cc4c(cc3[C@H](c3ccc5c(c3)OCO5)[C@@H]12)OCO4	> 25
N#C/C(C(=O)Nc1ccccc1)=C(/N)N1CCOCC1	> 100
O/N=C1/COC(C(F)(F)F)(C(F)(F)F)C1	> 100
O=S1(=O)OCCOS(=O)(=O)C1F	> 100
C[C@]12CC[C@H](O)CC1=CC[C@@H]1[C@@H]2CC[C@]2(C)C(=O)[C@@H](N3CCOCC3)C[C@@H]12	> 100
CC(=O)n1nc(-c2ccccc2)n(/N=C/c2ccc([N+](=O)[O-])cc2)c1=O	> 100
COc1ccc(C(=O)Sc2c(-c3ccccc3)c(=O)n(-c3ccccc3)c(=S)n2-c2ccccc2)cc1	> 100
Cc1ccc(S(=O)(=O)N/N=C/C(=C/c2ccc(Cl)cc2)CC(/C=N/NS(=O)(=O)c2ccc(C)cc2)=C\c2ccc(Cl)cc2)cc1	12.2
COc1cc(C[S+]2CCCC2)c(SC)cc1C[S+]1CCCC1	> 100
COCCOCc1nc(C#N)c(N)o1	> 100
C[C@]12C=CC(=O)C=C1CC[C@H]1[C@@H]3C[C@@H](O)[C@](O)(C(=O)CO)[C@@]3(C)C[C@H](O)[C@@]12F	> 100
CCSc1n/c(=C\c2ccco2)c2nnnn12	> 100
CCOC(=O)C1=C(C)N(C)C23OC4(C(=O)OC)CC2c2ccccc2C1N3C4=O (stereo not drawn)	> 100
CC(=O)c1c2c(cc3c1CC1(Cc4ccccc4C1=O)C3)CCC2 (stereo not drawn)	52.7
CC(=O)NC1C(OCc2ccccc2)OC(CO)C(O)C1OC(C)C(=O)NC(C)C(=O)NC(CCC(=O)NCCCNc1c2ccccc2nc2cccc([N+](=O)[O-])c12)C(N)=O (stereo not drawn)	6.53
COc1cc(Nc2cnc3cc(F)c(F)cc3n2)cc(OC)c1OC	> 100
COc1ccc(C2CC(=O)CC(c3ccc(OC)cc3)C23C(=O)NC(=O)NC3=O)cc1 (stereo not drawn)	44.4
COC(C)(C)C1=CCC(C)CC1 (stereo not drawn)	> 100
C=C1CC(c2ccc(OCCCN3C(=O)c4ccccc4C3=O)c(OC)c2)OC1=O (stereo not drawn)	8.96
c1ccc2sc(C3(N4CCCC4)CCCCCC3)cc2c1	27.6

What follows are molecules tested on SF-295 CNS (assay: DTP human tumour cell line panel, 48 h).

Structure (SMILES)	TGI [µM]
S=C(NCc1ccccc1)c1nc[nH]c1C(=S)NCc1ccccc1	17.6
Cc1cc2nc3c(C#N)c(-c4ccccc4)cc(Nc4ccc(Cl)cc4)n3c2cc1C	> 100
CC(=O)OCCn1cnc2nc(Nc3ccccc3)nc(Cl)c21	> 100
CCC1(CC)SCc2nc3ccccc3n21	> 100
O=C1OC[C@@H]2Cc3cc4c(cc3[C@H](c3ccc5c(c3)OCO5)[C@@H]12)OCO4	> 25
N#C/C(C(=O)Nc1ccccc1)=C(/N)N1CCOCC1	> 100
O/N=C1/COC(C(F)(F)F)(C(F)(F)F)C1	> 100
O=S1(=O)OCCOS(=O)(=O)C1F	> 100
C[C@]12CC[C@H](O)CC1=CC[C@@H]1[C@@H]2CC[C@]2(C)C(=O)[C@@H](N3CCOCC3)C[C@@H]12	> 100
CC(=O)n1nc(-c2ccccc2)n(/N=C/c2ccc([N+](=O)[O-])cc2)c1=O	> 100
COc1ccc(C(=O)Sc2c(-c3ccccc3)c(=O)n(-c3ccccc3)c(=S)n2-c2ccccc2)cc1	> 100
Cc1ccc(S(=O)(=O)N/N=C/C(=C/c2ccc(Cl)cc2)CC(/C=N/NS(=O)(=O)c2ccc(C)cc2)=C\c2ccc(Cl)cc2)cc1	55
COc1cc(C[S+]2CCCC2)c(SC)cc1C[S+]1CCCC1	> 100
COCCOCc1nc(C#N)c(N)o1	> 100
CC1=C(C#N)C(C#N)(C#N)C(NN(C)C)C1 (stereo not drawn)	79.1
C[C@]12C=CC(=O)C=C1CC[C@H]1[C@@H]3C[C@@H](O)[C@](O)(C(=O)CO)[C@@]3(C)C[C@H](O)[C@@]12F	> 100
CCSc1n/c(=C\c2ccco2)c2nnnn12	> 100
CCOC(=O)C1=C(C)N(C)C23OC4(C(=O)OC)CC2c2ccccc2C1N3C4=O (stereo not drawn)	> 100
CC(=O)c1c2c(cc3c1CC1(Cc4ccccc4C1=O)C3)CCC2 (stereo not drawn)	> 100
CC(=O)NC1C(OCc2ccccc2)OC(CO)C(O)C1OC(C)C(=O)NC(C)C(=O)NC(CCC(=O)NCCCNc1c2ccccc2nc2cccc([N+](=O)[O-])c12)C(N)=O (stereo not drawn)	35.2
COc1cc(Nc2cnc3cc(F)c(F)cc3n2)cc(OC)c1OC	> 100
COc1ccc(C2CC(=O)CC(c3ccc(OC)cc3)C23C(=O)NC(=O)NC3=O)cc1 (stereo not drawn)	> 100
COC(C)(C)C1=CCC(C)CC1 (stereo not drawn)	> 100
C=C1CC(c2ccc(OCCCN3C(=O)c4ccccc4C3=O)c(OC)c2)OC1=O (stereo not drawn)	26.3
